This is an account of results in patent US20230133958A1, “COMPOUNDS USEFUL IN MODULATING EGFR AND PI3K” (Mekanistic Therapeutics LLC, priority 2021, published 2023).

Holding throughout (format): cell-based
The subject of one experiment is HS 578T. Kind of experiment: NCI COMPARE panel (SRB growth inhibition), HS 578T. The settings on record: Homo sapiens, Breast Cancer, 48 h. Here is the method:
(§1) The human tumor cell lines of the cancer screening panel are grown in RPMI 1640 medium containing 5% fetal bovine serum and 2 mM L-glutamine. For a typical screening experiment, cells are inoculated into 96 well microtiter plates in 100 µL at plating densities ranging from 5,000 to 40,000 cells/well depending on the doubling time of individual cell lines. After cell inoculation, the microtiter plates are incubated at 37° C., 5% CO2, 95% air and 100% relative humidity for 24 h prior to addition of experimental drugs.
(§2) After 24 h, two plates of each cell line are fixed in situ with TCA, to represent a measurement of the cell population for each cell line at the time of drug addition (Tz). Experimental drugs are solubilized in dimethyl sulfoxide at 400-fold the desired final maximum test concentration and stored frozen prior to use. […]
(§3) Following drug addition, the plates are incubated for an additional 48 h at 37° C., 5 % CO2, 95% air, and 100% relative humidity. […] Bound stain is subsequently solubilized with 10 mM trizma base, and the absorbance is read on an automated plate reader at a wavelength of 515 nm. […] Using the seven absorbance measurements [time zero, (Tz), control growth, (C), and test growth in the presence of drug at the five concentration levels (Ti)], the percentage growth is calculated at each of the drug concentrations levels. Percentage growth inhibition is calculated as: […]

Another experiment deals with SR. The experiment is described as follows: NCI COMPARE panel (SRB growth inhibition), SR. The settings on record: Homo sapiens, Leukemia, 48 h. Here is the method: as §1, §2, §3
The next experiment has as its system NCI-H522. The experiment is described as follows: NCI COMPARE panel (SRB growth inhibition), NCI-H522. Particulars: Homo sapiens; Non-Small Cell Lung Cancer, NCI-H522, 48 h. Here is the method:
as §1, §2, §3

The test system of the next experiment is SN12C. Kind of experiment: NCI COMPARE panel (SRB growth inhibition), SN12C. The settings on record: Homo sapiens, Renal Cancer, 48 h. Here is the method:
as §1, §2, §3

Where only a bound is given, the exact number is not on record here.

On to `CS(=O)(=O)Nc1cc(-c2ccc3ncc(C#N)c(Nc4cccc(Cl)c4F)c3c2)cnc1Cl` [Compound 10, N-[2-chloro-5-[4-(3-chloro-2-fluoro-anilino)-3-cyano-6-quinolyl]-3-pyridyl]methanesulfonamide], for which the GI50 with HS 578T was at most 75 nM; in the experiment with SR, at most 75 nM; in the experiment with NCI-H522, over 250 nM; with SN12C it was 75 to 125 nM.
Regarding `CS(=O)(=O)Nc1cc(-c2ccc3ncnc(Nc4cccc(Cl)c4F)c3c2)cnc1Cl` [Compound 6, N-[2-chloro-5-[4-(3-chloro-2-fluoro-anilino)quinazolin-6-yl]-3-pyridyl] methanesulfonamide], the GI50 in the experiment on HS 578T is at most 75 nM; in the experiment on SR it was over 250 nM; with NCI-H522 it was 125 to 250 nM; in the experiment with SN12C, 125 to 250 nM.

A word on the GI50: it is the concentration that inhibits growth by half. A lower GI50 goes with greater sensitivity of the cells.
